From patent US8536172B2, “Inhibitors of JNK” (Roche Palo Alto LLC, priority 2009, dated 2013)

The molecules below were run against Human JNK2α2 (Homo sapiens (Human), UniProt P45984) (assay: JNK assay in vitro: phosphorylation of GST-ATF2 (19-96) with [γ-33P] ATP, JNK2). Conditions: 1 nM enzyme, 1 μM ATF2, 8 μM ATP (Km), 30° C. 30 min.
Format: biochemical
Description: JNK activity was measured by phosphorylation of GST-ATF2 (19-96) with [γ-^33P] ATP. […] Human JNK2α2 assay contains 1 nM enzyme, 1 μM ATF2, 8 μM ATP with 1 uCi [γ-^33P] ATP. Human JNK1α1 assay contains 2 nM enzyme, 1 μM ATF2, 6 μM ATP with 1 μCi [γ-^33P] ATP. Human JNK3 (Upstate Biotech #14-501M) assay contains 2 nM enzyme, 1 μM ATF2, 4 μM ATP with 1 μCi [γ-^33P] ATP. The enzyme assay was carried out in the presence or absence of several compound concentrations. JNK and compound were pre-incubated for 10 min., followed by initiation of the enzymatic reaction by adding ATP and the substrate. The reaction mixture was incubated at 30° C. for 30 min. At the end of incubation, the reaction was terminated by transferring 25 μl of the reaction mixture to 150 μl of 10% glutathione Sepharose® slurry (Amersham #27-4574-01) containing 135 mM EDTA. The reaction product was captured on the affinity resin, and washed on a filtration plate (Millipore, MABVNOB50) with phosphate buffered saline for six times to remove free radionucleotide. The incorporation of ^33P into ATF2 was quantified on a microplate scintillation counter (Packard Topcount). Compound inhibition potency on JNK was measured by IC50 value generated from ten concentration inhibition curves fitted into the 3-parameter model: % inhibition=Maximum/(1+(IC50/[Inhibitor])^slope). Data were analyzed on Microsoft Excel for parameter estimation.

Sequence of Human JNK2α2 (P45984 whole entry): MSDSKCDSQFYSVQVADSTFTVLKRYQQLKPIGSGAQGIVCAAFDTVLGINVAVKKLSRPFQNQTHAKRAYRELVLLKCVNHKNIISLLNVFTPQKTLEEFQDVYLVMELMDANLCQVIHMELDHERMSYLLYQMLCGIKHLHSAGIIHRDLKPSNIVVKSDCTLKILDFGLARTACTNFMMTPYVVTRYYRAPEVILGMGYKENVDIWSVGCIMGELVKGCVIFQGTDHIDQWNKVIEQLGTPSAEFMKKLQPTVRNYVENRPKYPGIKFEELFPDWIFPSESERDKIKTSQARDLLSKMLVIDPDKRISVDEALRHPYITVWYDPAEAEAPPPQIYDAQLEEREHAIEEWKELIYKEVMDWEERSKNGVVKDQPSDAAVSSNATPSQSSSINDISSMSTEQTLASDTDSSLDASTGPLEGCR

IC50	SMILES
55.5 nM	N#CCC(=O)N1CCN(c2cccc3c2ccn3-c2ccnc(N[C@H]3CC[C@H](CN4CC[C@H](O)C4)CC3)n2)CC1 [Compound I-28, 3-[4-(1-{2-[4-((S)-3-Hydroxy-pyrrolidin-1-ylmethyl)-cyclohexylamino]-pyrimidin-4-yl}-1H-indol-4-yl)-piperazin-1-yl]-3-oxo-propionitrile]
525 nM	CC(=O)N1CCN(c2cccc3c2ccn3-c2ccnc(N[C@H]3CC[C@H](CN4CC[C@@H](O)C4)CC3)n2)CC1 [Compound I-29, 1-[4-(1-{2-[4-((R)-3-Hydroxy-pyrrolidin-1-ylmethyl)-cyclohexylamino]-pyrimidin-4-yl}-1H-indol-4-yl)-piperazin-1-yl]-ethanone]
82.7 nM	CCOC1CCN(C(=O)[C@H]2CC[C@H](Nc3nccc(-n4ccc5c(N6CCC(S(C)(=O)=O)CC6)cccc54)n3)CC2)CC1 [Compound I-30, (4-Ethoxy-piperidin-1-yl)-(4-{4-[4-(4-methanesulfonyl-piperidin-1-yl)-indol-1-yl]-pyrimidin-2-ylamino}-cyclohexyl)-methanone]
198 nM	N#CCC(=O)O[C@@H]1CCC[C@H](Nc2nccc(-n3ccc4c(N5CCN(C(=O)CC#N)CC5)cccc43)n2)C1 [Compound I-33, Cyano-acetic acid (1R,3S)-3-(4-{4-[4-(2-cyano-acetyl)-piperazin-1-yl]-indol-1-yl}-pyrimidin-2-ylamino)-cyclohexyl ester]
89.2 nM	N#CCC(=O)N1CCN(c2cccc3c2ccn3-c2ccnc(N[C@H]3CCC[C@H](O)C3)n2)CC1 [Compound I-34, 3-(4-{1-[2-((1S,3S)-3-Hydroxy-cyclohexylamino)-pyrimidin-4-yl]-1H-indol-4-yl}-piperazin-1-yl)-3-oxo-propionitrile]
177 nM	N#CCC(=O)N1CCN(c2cccc3c2ccn3-c2ccnc(N[C@H]3CCC[C@@H](O)C3)n2)CC1 [Compound I-35, 3-(4-{1-[2-((1S,3R)-3-Hydroxy-cyclohexylamino)-pyrimidin-4-yl]-1H-indol-4-yl}-piperazin-1-yl)-3-oxo-propionitrile]
168 nM	N#CCC(=O)O[C@H]1CCC[C@H](Nc2nccc(-n3ccc4c(N5CCN(C(=O)CC#N)CC5)cccc43)n2)C1 [Compound I-36, Cyano-acetic acid (1S,3S)-3-(4-{4-[4-(2-cyano-acetyl)-piperazin-1-yl]-indol-1-yl}-pyrimidin-2-ylamino)-cyclohexyl ester]
406 nM	COCCO[C@H]1CC[C@H](Nc2nccc(-n3ccc4c(N5CCN(C(C)=O)CC5)cccc43)n2)CC1 [Compound I-39, 1-[4-(1-{2-[4-(2-Methoxy-ethoxy)-cyclohexylamino]-pyrimidin-4-yl}-1H-indol-4-yl)-piperazin-1-yl]-ethanone]
35 nM	COCCO[C@H]1CC[C@H](Nc2nccc(-n3ccc4c(N5CCN(C(=O)CC#N)CC5)cccc43)n2)CC1 [Compound I-40, 3-[4-(1-{2-[4-(2-Methoxy-ethoxy)-cyclohexylamino]-pyrimidin-4-yl}-1H-indol-4-yl)-piperazin-1-yl]-3-oxo-propionitrile]
432 nM	CC(=O)N1CCN(c2cccc3c2ccn3-c2ccnc(N[C@H]3CC[C@H](C(C)(C)O)CC3)n2)CC1 [Compound I-43, 1-[4-(1-{2-[4-(1-Hydroxy-1-methyl-ethyl)-cyclohexylamino]-pyrimidin-4-yl}-1H-indol-4-yl)-piperazin-1-yl]-ethanone]
19.2 nM	CS(=O)(=O)N(CCO)[C@H]1CC[C@H](Nc2nccc(-n3ccc4c(N5CCN(C(=O)CC#N)CC5)cccc43)n2)CC1 [Compound I-44, N-[4-(4-{4-[4-(2-Cyano-acetyl)-piperazin-1-yl]-indol-1-yl}-pyrimidin-2-ylamino)-cyclohexyl]-N-(2-hydroxy-ethyl)-methanesulfonamide]
33.4 nM	CC(C)(O)[C@H]1CC[C@H](Nc2nccc(-n3ccc4c(N5CCN(C(=O)CC#N)CC5)cccc43)n2)CC1 [Compound I-45, 3-[4-(1-{2-[4-(1-Hydroxy-1-methyl-ethyl)-cyclohexylamino]-pyrimidin-4-yl}-1H-indol-4-yl)-piperazin-1-yl]-3-oxo-propionitrile]
36 nM	CCN1CCN(C(=O)[C@H]2CC[C@H](Nc3nccc(-n4ccc5c(N6CCC(S(C)(=O)=O)CC6)cccc54)n3)CC2)CC1 [Compound I-46, (4-Ethyl-piperazin-1-yl)-(4-{4-[4-(4-methanesulfonyl-piperidin-1-yl)-indol-1-yl]-pyrimidin-2-ylamino}-cyclohexyl)-methanone]
29.6 nM	CS(=O)(=O)C1CCN(c2cccc3c2ccn3-c2ccnc(N[C@H]3CC[C@H](C(=O)N4CCN(C5CC5)CC4)CC3)n2)CC1 [Compound I-47, (4-Cyclopropyl-piperazin-1-yl)-(4-{4-[4-(4-methanesulfonyl-piperidin-1-yl)-indol-1-yl]-pyrimidin-2-ylamino}-cyclohexyl)-methanone]
54.5 nM	CC(C)(C)N1CCN(C(=O)[C@H]2CC[C@H](Nc3nccc(-n4ccc5c(N6CCC(S(C)(=O)=O)CC6)cccc54)n3)CC2)CC1 [Compound I-48, (4-tert-Butyl-piperazin-1-yl)-(4-{4-[4-(4-methanesulfonyl-piperidin-1-yl)-indol-1-yl]-pyrimidin-2-ylamino}-cyclohexyl)-methanone]
59.8 nM	CS(=O)(=O)C1CCN(c2cccc3c2ccn3-c2ccnc(N[C@H]3CC[C@H](C(=O)N4CCN(C5CCC5)CC4)CC3)n2)CC1 [Compound I-49, (4-Cyclobutyl-piperazin-1-yl)-(4-{4-[4-(4-methanesulfonyl-piperidin-1-yl)-indol-1-yl]-pyrimidin-2-ylamino}-cyclohexyl)-methanone]
15.6 nM	CS(=O)(=O)C1CCN(c2cccc3c2ccn3-c2ccnc(N[C@H]3CC[C@H](C(=O)N4CCN5CCCCC5C4)CC3)n2)CC1 (stereo partly drawn) [Compound I-50, (4-{4-[4-(4-Methanesulfonyl-piperidin-1-yl)-indol-1-yl]-pyrimidin-2-ylamino}-cyclohexyl)-(octahydro-pyrido[1,2-a]pyrazin-2-yl)-methanone]
21.8 nM	CS(=O)(=O)C1CCN(c2cccc3c2ccn3-c2ccnc(N[C@H]3CC[C@H](C(=O)N4CCN5CCCC5C4)CC3)n2)CC1 (stereo partly drawn) [Compound I-52, (Hexahydro-pyrrolo[1,2-a]pyrazin-2-yl)-(4-{4-[4-(4-methanesulfonyl-piperidin-1-yl)-indol-1-yl]-pyrimidin-2-ylamino}-cyclohexyl)-methanone]
15.2 nM	CS(=O)(=O)C1CCN(c2cccc3c2ccn3-c2ccnc(N[C@H]3CC[C@H](C(=O)N4CCn5ccnc5C4)CC3)n2)CC1 [Compound I-54, (5,6-Dihydro-8H-imidazo[1,2-a]pyrazin-7-yl)-(4-{4-[4-(4-methanesulfonyl-piperidin-1-yl)-indol-1-yl]-pyrimidin-2-ylamino}-cyclohexyl)-methanone]
806 nM	N#CCC(=O)N1CCN(c2cccc3c2ccn3-c2ccnc(N[C@H]3CC[C@@H](O)C3)n2)CC1 [Compound I-58, 3-(4-{1-[2-((1S,3R)-3-Hydroxy-cyclopentylamino)-pyrimidin-4-yl]-1H-indol-4-yl}-piperazin-1-yl)-3-oxo-propionitrile]
570 nM	N#CCC(=O)N1CCN(c2cccc3c2ccn3-c2ccnc(N[C@@H]3CC[C@H](O)C3)n2)CC1 [Compound I-59, 3-(4-{1-[2-((1R,3S)-3-Hydroxy-cyclopentylamino)-pyrimidin-4-yl]-1H-indol-4-yl}-piperazin-1-yl)-3-oxo-propionitrile]

SMILES	IC50
CS(=O)(=O)N[C@H]1CC[C@H](Nc2nccc(-n3ccc4c(N5CCNCC5)cccc43)n2)CC1 [Compound I-1, N-{4-[4-(4-Piperazin-1-yl-indol-1-yl)-pyrimidin-2-ylamino]-cyclohexyl}-methanesulfonamide]	1430 nM
CS(=O)(=O)N[C@H]1CC[C@H](Nc2nccc(-n3ccc4c(N5CCN(S(C)(=O)=O)CC5)cccc43)n2)CC1 [Compound I-3, N-(4-{4-[4-(4-Methanesulfonyl-piperazin-1-yl)-indol-1-yl]-pyrimidin-2-ylamino}-cyclohexyl)-methanesulfonamide]	182 nM
CS(=O)(=O)N[C@H]1CC[C@H](Nc2nccc(-n3ccc4c(N5CCN(C(N)=O)CC5)cccc43)n2)CC1 [Compound I-7, 4-{1-[2-(4-Methanesulfonylamino-cyclohexylamino)-pyrimidin-4-yl]-1H-indol-4-yl}-piperazine-1-carboxylic acid amide]	86.1 nM
CS(=O)(=O)N[C@H]1CC[C@H](Nc2nccc(-n3ccc4c(N5CCN(S(N)(=O)=O)CC5)cccc43)n2)CC1 [Compound I-8, 4-{1-[2-(4-Methanesulfonylamino-cyclohexylamino)-pyrimidin-4-yl]-1H-indol-4-yl}-piperazine-1-sulfonic acid amide]	82.3 nM
N#CCC(=O)N1CCN(c2cccc3c2ccn3-c2ccnc(N[C@H]3CC[C@H](CO)CC3)n2)CC1 [Compound I-27, 3-(4-{1-[2-(4-Hydroxymethyl-cyclohexylamino)-pyrimidin-4-yl]-1H-indol-4-yl}-piperazin-1-yl)-3-oxo-propionitrile]	12.8 nM
N#CCC(=O)N1CCN(c2cccc3c2ccn3-c2ccnc(NC3CCCCC3)n2)CC1 [Compound I-38, 3-{4-[1-(2-Cyclohexylamino-pyrimidin-4-yl)-1H-indol-4-yl]-piperazin-1-yl}-3-oxo-propionitrile]	42.8 nM
